This is an account of results in patent publication US10280158B2, “Immune adjustment compound, use thereof and pharmaceutical composition comprising same” (SUZHOU CONNECT BIOPHARMACEUTICALS, LTD., priority 2013, dated 2019).

Molecules are shown by their SMILES.

The nature of data set [1]: In vivo pharmacokinetic experiment, oral administration. Particulars: for half-life: po, 3 mg/kg. Further details: species or system Sprague Dawley rats. The protocol: (§1) In this Example, the pharmacokinetic properties of compounds 1, 2, 3, 4 and 5 were evaluated via. i.v. and p.o. dosing to Sprague Dawley rats.
(§2) Experimental animals used in this Example and hereinafter were male SD rats of 7-9 weeks old, with body weight ranging from 186 to 231 g, which were purchased from Beijing Vital River Laboratory Animal Technology Co., Ltd. The animals were quarantined by veterinarian for 5 days after purchase, then animals had passed quarantine inspection were selected to be tested under SPE conditions, wherein the tested animals are assigned into 3 rats per group as follows.
Oral administration group: 2.74 mg of each of compounds 1-5 was respectively prepared into a solution of 0.3 mg/mL by using 9.113 mL 0.5% CMC-Na as a diluent. Each solution was vortexed 1-2 mins after mixed fully, and then was ultrasonically treated for 20-30 mins until a uniform suspension was obtained. The uniform suspension was used as medicine administrated to oral administration group, and the administration was conducted with a dose of 10 mL/kg body weight of each rat.
(§3) For both oral administration group and intravenous administration group, blood samples were collected at 0.0833 h (5 min), 0.25 h (15 min), 0.5 h, 1 h, 2 h, 4 h, 8 h, and 24 h after administration. After isoflurane anesthesia 0.3 mL whole blood was collected from orbital venous plexus of the animals at each time point. The animals would be euthanized after all samples were collected.
(§4) The collected blood samples were placed in EP tubes containing heparin sodium (about 10 μl, 1000 IU/mL), which were then placed in trash ice immediately, and centrifuged at 4,000 rpm and a low temperature (4° C.) for 5 minutes. The plasma was isolated rapidly and then stored at −20° C. until analysis.
(§5) The concentration of each compound in blood was measured by LC-MS/MS-001 (Q-trap-3200) with osalmide as internal standard material, as follows. 24 μL blank plasma was added into 6 μL plasma sample (5 times of dilution), and then a solution of acetonitrile containing 150 μL internal standard material (osalmide in 100 μg/mL) was added in. The mixture was shaken for 5 minutes, and then centrifuged at 4,000 rpm for 5 minutes. 2 μL of the obtained sample was implanted into LC-MS/MS for analysis. As for undiluted plasma sample, 30 μL of it was added into a solution of acetonitrile containing 150 μL internal standard material (osalmide in 100 μg/mL). The mixture was shaken for 5 minutes, and then centrifuged at 4,000 rpm for 5 minutes. 2 μL of the obtained sample was implanted into LC-MS/MS for analysis.
(§6) As for data analysis, WinNolin (V6.2) non-compartment model (NCA) was used for calculating main metabolic pharmacokinetic parameters including t1/2, AUC(0−t), AUCinf, V, Cl, MRT, etc., and Microsoft Office EXCEL was used for calculating mean values, standard deviations and coefficients of variation.

Data set [2] is described as follows: In vivo pharmacokinetic experiment, intravenous administration. Further details: species or system Sprague Dawley rats. The method, then: as §1, §2
Intravenous administration group: 1.61 mg of each of compounds 1-5 was respectively prepared into a solution of 1 mg/mL by using 1.610 mL 10% HP-β-CD as a diluent. Each solution was vortexed 1-2 mins after mixed fully, and then was ultrasonically treated for 28-30 mins. The obtained solution was used as medicine administrated to intravenous administration group, and the administration was conducted with a dose of 1 mL/kg body weight of each rat.
as §3, §4, §5, §6

Data set [3] has as its target human S1P3 (Homo sapiens, UniProt Q99500). Description: Internalization effect experiment of S1P3 (CHO-S cells). Format: cell-based. The protocol: CHO—S cells bearing human S1P1 with Myc tag were harvested and then adjusted to a density of one million cells per mL by Dulbecco's modified Eagle's medium (DMEM). […] After incubation, the mixture was centrifuged at 800 RPM for 5 minutes to obtain the cells. The cells were resuspended in FACS buffer (PBS containing 1% BSA), and Myc antibody labelled with fluorescein isothiocyanate (FITC) (from Californian Miltenyi Biotec GmbH, USA) was added in and incubated for 1 hour on ice. The cells were washed, resuspended in pre-cooled FACS buffer and analysed by FACS Calibur flow cytometry.
CHO—S cells expressing human S1P3 were used to perform internalization detection test. Besides cells, experimental method was the same with the method of the internalized detection experiment of S1P1.

The test system of data set [4] is lymphocytes in the peripheral blood. Description: Effect on the number of lymphocytes in the peripheral blood. Format: in vivo, Sprague-Dawley (SD) rats. Particulars: oral, SD rats. From the text: S1P1, which is expressed on the surface of lymphocytes, is essential for lymphocytes to leave the secondary lymphoid tissue and then enter into the peripheral circulation. Small molecule agonists of S1P1 can activate the receptor and result in an internalization effect on the receptor. This mechanism is a currently known mechanism by which lymphocytes are prevented from leaving the secondary lymphoid tissue, then resulting in an decreased number of lymphocytes in the peripheral circulation. In order to determine whether the compounds provided by present invention can reduce the number of lymphocytes in the peripheral blood, an in vivo effect experiment on lymphocytes is performed.
An appropriate amount of compound 2 was prepared as a suspension with sodium carboxymethylcellulose (CMC-Na) and was given orally to three Sprague-Dawley (SD) rats. Blood samples (0.5 ml) were collected at 30 min before the administration and at different time points after the administration (the collected blood samples were placed in EP tubes containing an appropriate amount of EDTA-2K solution), and analyzed on ADVIA2120 blood cell analyzer directly.

Data set [5] has as its system Collagen Type II-Induced Arthritis. Description: Collagen type II-induced arthritis (rat CIA model). Type of data set: in vivo, Lewis rats. The following applies: oral, 1 mg/kg.
Description: To perform the testing, Lewis rats were induced to develop the disease as follows. Rats were anesthetized with isoflurane and were injected intradermally with a total of 0.5 mL CII/CFA emulsion. The emulsion was injected at 3 sites, one site at the base of the tail (0.1 mL), and the other two sites (0.2 mL/site) on the back of the rat near to the base of the tail. An identical booster injection was given i.d. at 7 days after the primary immunization avoiding previous injection sites.
The positive control group was given TOFACITINIB orally on day 12 after sensitization. The severity of arthritis in four paws was scored 2 times per week starting on day 7 after sensitization. The criteria was as follows: score 0: No evidence of erythema and swelling; score 1: Erythema and mild swelling confined to the mid-foot (tarsals) or ankle joint; score 2: Erythema and mild swelling extending from the ankle to the mid-foot; score 3: Erythema and moderate swelling extending from the ankle to the metatarsal joints; score 4: Erythema and severe swelling encompass the ankle, foot, and digits. Joint swelling, measured by the volume of hind paws using Plethysmometer, was determined on Day 0, and then 2 times per week from Day 7 to Day 28. Destruction of the joint was determined by X-Ray examination on Day 28.
The subject of data set [6] is experimental autoimmune encephalomyelitis (EAE). Description: Experimental autoimmune encephalomyelitis (EAE) model. Format: in vivo. The following applies: oral, 0.03, 0.1 and 1 mg/kg, Day 0 to Day 30, C57BL/6 mice.
Description: Eighty female C57BL/6 mice were randomly assigned into eight groups based on body weight and immunized in this study. Each group consisted of ten (10) mice. To induce the disease, MOG 35-55 (MOG, myelin oligo-dendrocyte glycoprotein) was dissolved in saline to a concentration of 2 mg/mL, and was emulsified in modified complete Freund's Adjuvant (CFA). Mice were anesthetized with isoflurane and were then injected with 100 μL of emulsion subcutaneously into the shaved backs of the mice at three sites, one along the midline of the back between the shoulders, and two on each side of the midline on the lower back. Pertuxus toxin (200 ng in 200 μL of PBS) was administered i.p. on the day of immunization and 48 hours after for all groups. EAE development was assessed by clinically scoring of the mice once daily from Day 0 to Day 30 post immunization.
Setting [7] is: male, Sprague-Dawley, rat, plasma, oral administration (3 mg/kg), SD rats.
The mark [8] stands for this setting: intravenous administration, rats, in words.
Setting [9] is: male, Sprague-Dawley, rat, plasma, intravenous administration (1 mg/kg), SD rats.

In general, AUC(0-inf) refers to the area under the concentration-time curve extrapolated to infinity. What is called Cmax is the peak of the concentration-time curve. The Tmax is the time from dosing to the highest level. What is called MRT inf is a mean duration of stay, worked out from the concentration-time curve. The clearance is the volume of plasma or blood freed of the substance per unit of time. The low end stands for inefficient removal, the high end for efficient removal. The term EC50 denotes the concentration at which the effect is half-maximal.

human S1P3, sequence (Q99500 whole entry): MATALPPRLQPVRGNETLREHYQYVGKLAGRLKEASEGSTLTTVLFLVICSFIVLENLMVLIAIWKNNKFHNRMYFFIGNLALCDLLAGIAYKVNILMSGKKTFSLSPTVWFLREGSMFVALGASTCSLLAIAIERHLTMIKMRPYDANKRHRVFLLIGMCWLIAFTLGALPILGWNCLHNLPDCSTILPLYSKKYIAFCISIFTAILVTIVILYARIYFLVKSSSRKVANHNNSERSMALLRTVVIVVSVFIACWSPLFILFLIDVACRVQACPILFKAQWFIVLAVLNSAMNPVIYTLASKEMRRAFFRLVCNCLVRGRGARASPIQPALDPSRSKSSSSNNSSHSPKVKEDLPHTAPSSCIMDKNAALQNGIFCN

`CC(C)Cc1ccc(-c2nc(-c3ccc(CN4CC(C(=O)O)C4)c(F)c3)no2)cc1` [Compound 2, 1-{2-fluoro-4-[5-(4-isobutylphenyl)-1,2,4-oxadiazol-3-yl]-benzyl}-3-azetidine carboxylic acid]: the “half-life shortening relative to compound 1” value in data set [1] (after oral administration, rats) is reported as approximately 50%. The half-life in data set [1] (male, Sprague-Dawley, rat, plasma, after oral administration, rats, read-out: terminal half-life (converted)) is less than 330 min. In addition, the half-life in data set [1] (male, Sprague-Dawley, rat, plasma, oral administration (3 mg/kg), SD rats, read-out: T½ (converted)) was 328 ± 37.8 min. Moreover, in data set [1] (setting [7]), the total exposure AUC(0-inf) is 3830 ± 184 ng·h/mL, the highest level (Cmax) was 341 ± 36.2 ng/mL and the Tmax came to 2 h. The same molecule gave a F in data set [1] (oral administration (3 mg/kg), SD rats) of 63.4%. In data set [1] (oral administration, rats, FIGS. 1A and 1B, in words), the “elimination speed after the highest concentration, compared with compounds 1 and 5” value is “accelerated obviously”. In addition, in data set [2] (setting [8]), the “mean residence time (MRT) compared with compound 1” value is reported as “reduced significantly” and the “terminal half-life compared with compound 1” value is “reduced significantly”. In data set [2] (setting [9]), this molecule showed an AUC(0-inf) of 2010 ± 146 ng·h/mL, an MRT inf of 6.28 ± 0.44 h and a clearance of 8.32 mL/min/kg. Besides, the half-life in data set [2] (male, Sprague-Dawley, rat, plasma, intravenous administration (1 mg/kg), SD rats, read-out: T½ (converted)) is 328 ± 25.2 min. Also, the Vd in data set [2] (male, Sprague-Dawley, rat, plasma, intravenous administration (1 mg/kg), SD rats, read-out: Vss) was found to be 3.12 ± 0.101 L/kg. The “internalization activation effect on S1P3 subtype” value in data set [3] (CHO-S cells expressing human S1P3, in words) is reported as “no internalization activation effect on S1P3 subtype”. For the same molecule, the half-maximal effective concentration (EC50) in data set [3] (CHO-S cells expressing human S1P3, read-out: Receptor Internalization (EC50) S1P3) is more than 1000 nM. Also, in data set [4] (in words), the “number of peripheral mononuclear cells and other leukocytes” value is on record as “unobviously”. For the same molecule, in data set [4] (dose of 0.01 mg/kg), the “reduction of lymphocytes in the peripheral blood” value is reported as “more than 50%”. In addition, the “reduction of lymphocytes in the peripheral blood” value in data set [4] (dose of 1 mg/kg, in words) was “the most reduction”. The “number of lymphocytes in the peripheral blood” value in data set [4] (three doses, 30 to 480 minutes after administration, in words) was “reduced the number of lymphocytes in the peripheral blood effectively”. Moreover, the “development of arthritis based on joint swelling” value in data set [5] (Lewis rats, FIG. 5) is on record as “effective in inhibiting the development of arthritis”. Also, the “development of arthritis based on destruction of joint structure” value in data set [5] (X-Ray on Day 28, Lewis rats, FIG. 6) was “effective in inhibiting the development of arthritis”. Besides, the “development of EAE (clinical score)” value in data set [6] is recorded as “effectively inhibited development of EAE”.
